% of control, % binding and % of inhibition data for 9 compounds are collected here from ChEMBL document CHEMBL5465560, “Selectivity Literature for EUbOPEN Chemogenomic Library” (2024).

Structures are written as SMILES.

Experiment [1] addresses MAP kinase-interacting serine/threonine-protein kinase 1 (Homo sapiens) (UniProt Q9BUB5). As to the kind of experiment: Selectivity interaction (ProQinase) EUB0000171b MKNK1.
The target of experiment [2] is T1, Mitogen-activated protein kinase kinase kinase 7 (Homo sapiens) (UniProt O43318).
T1 sequence (whole entry): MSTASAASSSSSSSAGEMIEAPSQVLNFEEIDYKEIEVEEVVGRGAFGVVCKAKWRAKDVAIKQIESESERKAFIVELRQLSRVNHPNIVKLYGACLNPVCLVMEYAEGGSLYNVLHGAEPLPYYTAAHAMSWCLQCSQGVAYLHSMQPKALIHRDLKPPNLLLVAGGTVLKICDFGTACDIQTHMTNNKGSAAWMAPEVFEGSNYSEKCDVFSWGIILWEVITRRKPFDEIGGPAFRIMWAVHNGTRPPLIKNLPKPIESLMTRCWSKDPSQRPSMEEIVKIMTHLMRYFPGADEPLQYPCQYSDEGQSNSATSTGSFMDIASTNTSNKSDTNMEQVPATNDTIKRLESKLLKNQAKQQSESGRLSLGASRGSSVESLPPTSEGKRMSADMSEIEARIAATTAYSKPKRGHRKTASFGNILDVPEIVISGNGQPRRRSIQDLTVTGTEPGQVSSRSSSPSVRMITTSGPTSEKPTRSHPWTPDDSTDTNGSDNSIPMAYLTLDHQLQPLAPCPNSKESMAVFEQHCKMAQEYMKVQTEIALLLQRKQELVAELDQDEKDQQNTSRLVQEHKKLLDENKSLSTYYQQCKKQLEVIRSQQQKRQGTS
As to conditions: at 10 µM.

Experiment [3] has as its target T2, Serine/threonine-protein kinase 17B (Homo sapiens) (UniProt O94768).
T2 sequence (whole entry): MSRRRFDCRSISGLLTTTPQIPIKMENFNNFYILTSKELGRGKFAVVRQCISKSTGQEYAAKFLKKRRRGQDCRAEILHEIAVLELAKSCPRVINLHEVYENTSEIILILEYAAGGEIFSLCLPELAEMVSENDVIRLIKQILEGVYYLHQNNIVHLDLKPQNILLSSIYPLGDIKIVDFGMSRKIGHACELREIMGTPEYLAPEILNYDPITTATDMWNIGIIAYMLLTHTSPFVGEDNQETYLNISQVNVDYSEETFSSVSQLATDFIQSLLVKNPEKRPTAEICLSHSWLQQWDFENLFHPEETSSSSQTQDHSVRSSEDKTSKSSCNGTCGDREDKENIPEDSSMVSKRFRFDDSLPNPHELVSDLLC
As to conditions: at 10 µM.

Experiment [4] has as its target Bone morphogenetic protein receptor type-1B (Homo sapiens, UniProt O00238). Kind of experiment: Selectivity interaction (KinomeScan (DiscoverX)) EUB0000092b BMPR1B. The settings on record: at 10 µM.
Experiment [5] addresses Serine/threonine-protein kinase 38 (Homo sapiens) (UniProt Q15208). Kind of experiment: Selectivity interaction (KinomeScan (DiscoverX)) EUB0001049a STK38. As to conditions: at 1 µM.
Experiment [6] has as its system Proto-oncogene tyrosine-protein kinase receptor Ret (Homo sapiens), P07949 [M918T]. Kind of experiment: (§1) Selectivity interaction (KinomeScan (DiscoverX)) EUB0000666a RET. As to conditions: at 10 µM.
Experiment [7] relates to Proto-oncogene tyrosine-protein kinase receptor Ret (Homo sapiens), P07949 [V804M]. Described as §1. As to conditions: at 10 µM.
Proto-oncogene tyrosine-protein kinase receptor Ret (Homo sapiens), P07949 [V804M], sequence (P07949 whole entry V804M): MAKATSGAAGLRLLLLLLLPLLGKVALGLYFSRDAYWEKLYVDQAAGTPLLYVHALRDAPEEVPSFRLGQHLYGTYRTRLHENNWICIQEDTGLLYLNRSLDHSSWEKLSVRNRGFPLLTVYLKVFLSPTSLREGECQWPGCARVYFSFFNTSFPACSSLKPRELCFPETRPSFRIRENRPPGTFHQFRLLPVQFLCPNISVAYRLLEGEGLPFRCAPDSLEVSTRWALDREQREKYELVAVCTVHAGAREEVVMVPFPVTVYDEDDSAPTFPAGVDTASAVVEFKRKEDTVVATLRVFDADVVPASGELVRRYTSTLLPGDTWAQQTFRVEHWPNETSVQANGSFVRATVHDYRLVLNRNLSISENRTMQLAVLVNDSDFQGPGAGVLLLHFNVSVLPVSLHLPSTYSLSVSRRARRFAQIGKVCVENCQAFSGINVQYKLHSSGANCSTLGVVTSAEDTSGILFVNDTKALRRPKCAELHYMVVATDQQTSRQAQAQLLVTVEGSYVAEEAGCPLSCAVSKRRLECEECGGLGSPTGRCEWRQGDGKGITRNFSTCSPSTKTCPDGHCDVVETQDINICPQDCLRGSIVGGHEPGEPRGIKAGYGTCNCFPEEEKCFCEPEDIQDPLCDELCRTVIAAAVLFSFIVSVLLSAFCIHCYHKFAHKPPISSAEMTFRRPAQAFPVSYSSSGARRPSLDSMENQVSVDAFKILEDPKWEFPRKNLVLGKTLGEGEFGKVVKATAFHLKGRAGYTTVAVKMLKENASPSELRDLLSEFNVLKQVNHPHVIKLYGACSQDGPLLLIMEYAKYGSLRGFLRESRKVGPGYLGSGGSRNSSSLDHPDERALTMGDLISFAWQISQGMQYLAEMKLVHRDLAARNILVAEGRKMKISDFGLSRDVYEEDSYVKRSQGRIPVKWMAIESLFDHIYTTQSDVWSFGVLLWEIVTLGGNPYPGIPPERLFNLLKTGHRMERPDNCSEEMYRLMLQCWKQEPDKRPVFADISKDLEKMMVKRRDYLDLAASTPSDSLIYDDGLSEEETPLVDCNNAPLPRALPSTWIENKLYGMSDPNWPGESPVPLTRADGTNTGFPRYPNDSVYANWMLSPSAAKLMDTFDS
Experiment [8] relates to Proto-oncogene tyrosine-protein kinase receptor Ret (Homo sapiens), P07949 [V804L]. Described as §1. The settings on record: at 10 µM.
Proto-oncogene tyrosine-protein kinase receptor Ret (Homo sapiens), P07949 [V804L], sequence (P07949 whole entry V804L): as the sequence (P07949 whole entry V804M) above, with M804L counted along it
The target of experiment [9] is Proto-oncogene tyrosine-protein kinase receptor Ret (Homo sapiens, UniProt P07949). The experiment is described as §1. The settings on record: at 10 µM.
Proto-oncogene tyrosine-protein kinase receptor Ret, sequence (P07949 whole entry): as the sequence (P07949 whole entry V804M) above, with M804V counted along it
Experiment [10] has as its target T3, Tyrosine-protein kinase ZAP-70 (Homo sapiens) (UniProt P43403).
T3 sequence (whole entry): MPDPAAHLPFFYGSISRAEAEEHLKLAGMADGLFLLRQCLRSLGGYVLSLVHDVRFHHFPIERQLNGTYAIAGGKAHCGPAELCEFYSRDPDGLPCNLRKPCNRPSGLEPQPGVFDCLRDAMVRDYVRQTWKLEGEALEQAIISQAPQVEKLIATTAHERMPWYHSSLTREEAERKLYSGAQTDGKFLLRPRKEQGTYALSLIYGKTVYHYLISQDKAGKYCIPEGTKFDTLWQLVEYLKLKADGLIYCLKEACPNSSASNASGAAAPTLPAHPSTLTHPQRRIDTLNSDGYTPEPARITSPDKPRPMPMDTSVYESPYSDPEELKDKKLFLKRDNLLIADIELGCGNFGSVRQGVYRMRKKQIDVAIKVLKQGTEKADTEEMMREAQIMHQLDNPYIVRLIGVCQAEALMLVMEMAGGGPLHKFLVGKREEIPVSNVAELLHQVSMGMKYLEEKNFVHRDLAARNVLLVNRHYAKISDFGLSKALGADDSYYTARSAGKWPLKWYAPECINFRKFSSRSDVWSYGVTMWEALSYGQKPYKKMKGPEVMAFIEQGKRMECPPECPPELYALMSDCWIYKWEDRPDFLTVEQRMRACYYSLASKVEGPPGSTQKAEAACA
As to the kind of experiment: Selectivity interaction (KinomeScan (DiscoverX)) EUB0000607a ZAP70. The settings on record: at 10 µM.

Experiment [11] addresses T4, MAP/microtubule affinity-regulating kinase 4 (Homo sapiens) (UniProt Q96L34).
T4 sequence (whole entry): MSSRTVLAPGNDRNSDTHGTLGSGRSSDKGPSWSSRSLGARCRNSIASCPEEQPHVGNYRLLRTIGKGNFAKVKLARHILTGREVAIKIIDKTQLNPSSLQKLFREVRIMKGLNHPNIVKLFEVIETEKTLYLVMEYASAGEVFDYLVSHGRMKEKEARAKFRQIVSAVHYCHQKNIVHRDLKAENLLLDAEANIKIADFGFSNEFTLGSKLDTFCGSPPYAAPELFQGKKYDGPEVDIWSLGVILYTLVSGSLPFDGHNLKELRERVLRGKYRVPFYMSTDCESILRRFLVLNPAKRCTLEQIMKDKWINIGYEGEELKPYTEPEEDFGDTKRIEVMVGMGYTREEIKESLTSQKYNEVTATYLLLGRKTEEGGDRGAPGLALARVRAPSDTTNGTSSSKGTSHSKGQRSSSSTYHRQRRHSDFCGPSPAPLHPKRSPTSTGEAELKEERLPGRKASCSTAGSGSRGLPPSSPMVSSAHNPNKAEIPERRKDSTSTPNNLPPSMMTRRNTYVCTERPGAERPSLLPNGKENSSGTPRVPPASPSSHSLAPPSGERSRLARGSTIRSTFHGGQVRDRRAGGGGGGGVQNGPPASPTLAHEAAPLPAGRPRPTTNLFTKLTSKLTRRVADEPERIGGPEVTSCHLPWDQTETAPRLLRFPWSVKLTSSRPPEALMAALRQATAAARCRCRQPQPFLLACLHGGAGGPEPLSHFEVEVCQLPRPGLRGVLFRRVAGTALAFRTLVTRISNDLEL
Kind of experiment: Selectivity interaction (KinomeScan (DiscoverX)) EUB0000229b MARK4. As to conditions: at 10 µM.

Experiment [12] deals with Sigma non-opioid intracellular receptor 1 (Homo sapiens) (UniProt Q99720). As to the kind of experiment: Selectivity interaction (GPCR panel (PDSP screen)) EUB0000311b SIGMAR1. The settings on record: at 10 µM.
Sigma non-opioid intracellular receptor 1 (Homo sapiens), sequence (Q99720 whole entry): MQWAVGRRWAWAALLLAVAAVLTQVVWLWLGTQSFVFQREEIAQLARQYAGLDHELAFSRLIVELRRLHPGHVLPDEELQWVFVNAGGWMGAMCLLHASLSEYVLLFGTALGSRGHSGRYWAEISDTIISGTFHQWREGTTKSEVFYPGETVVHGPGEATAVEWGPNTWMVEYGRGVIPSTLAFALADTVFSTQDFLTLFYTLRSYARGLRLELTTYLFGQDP

MAP kinase-interacting serine/threonine-protein kinase 1 (Homo sapiens), sequence (Q9BUB5 whole entry, looked up): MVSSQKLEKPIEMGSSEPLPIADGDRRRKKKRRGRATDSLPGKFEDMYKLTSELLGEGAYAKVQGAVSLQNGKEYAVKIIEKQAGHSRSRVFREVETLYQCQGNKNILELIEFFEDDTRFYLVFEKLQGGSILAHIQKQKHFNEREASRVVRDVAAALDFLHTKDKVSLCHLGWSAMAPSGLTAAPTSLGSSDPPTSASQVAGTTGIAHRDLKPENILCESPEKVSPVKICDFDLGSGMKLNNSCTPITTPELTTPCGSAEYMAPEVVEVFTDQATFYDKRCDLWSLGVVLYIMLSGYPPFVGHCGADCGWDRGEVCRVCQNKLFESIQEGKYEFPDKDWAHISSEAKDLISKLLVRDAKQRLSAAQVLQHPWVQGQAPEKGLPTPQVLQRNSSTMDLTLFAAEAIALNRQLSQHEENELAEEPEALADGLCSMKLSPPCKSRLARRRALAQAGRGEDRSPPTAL
Proto-oncogene tyrosine-protein kinase receptor Ret (Homo sapiens), P07949 [M918T], sequence (P07949 whole entry M918T): as the sequence (P07949 whole entry V804M) above, with M804V, M918T counted along it
Bone morphogenetic protein receptor type-1B, sequence (O00238 whole entry): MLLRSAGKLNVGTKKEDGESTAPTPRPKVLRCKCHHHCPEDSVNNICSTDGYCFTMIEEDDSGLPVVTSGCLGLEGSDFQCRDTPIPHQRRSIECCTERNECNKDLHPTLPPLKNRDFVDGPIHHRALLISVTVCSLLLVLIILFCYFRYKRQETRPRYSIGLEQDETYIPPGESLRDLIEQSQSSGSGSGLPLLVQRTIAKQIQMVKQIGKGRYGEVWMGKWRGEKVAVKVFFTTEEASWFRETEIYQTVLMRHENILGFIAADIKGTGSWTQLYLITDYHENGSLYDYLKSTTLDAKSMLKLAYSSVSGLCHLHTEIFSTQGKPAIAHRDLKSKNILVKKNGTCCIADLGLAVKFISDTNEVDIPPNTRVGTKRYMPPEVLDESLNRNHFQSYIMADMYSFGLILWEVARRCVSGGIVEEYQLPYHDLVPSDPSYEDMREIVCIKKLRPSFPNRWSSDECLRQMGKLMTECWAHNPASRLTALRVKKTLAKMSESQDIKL
Serine/threonine-protein kinase 38 (Homo sapiens), sequence (Q15208 2-465 limits assumed): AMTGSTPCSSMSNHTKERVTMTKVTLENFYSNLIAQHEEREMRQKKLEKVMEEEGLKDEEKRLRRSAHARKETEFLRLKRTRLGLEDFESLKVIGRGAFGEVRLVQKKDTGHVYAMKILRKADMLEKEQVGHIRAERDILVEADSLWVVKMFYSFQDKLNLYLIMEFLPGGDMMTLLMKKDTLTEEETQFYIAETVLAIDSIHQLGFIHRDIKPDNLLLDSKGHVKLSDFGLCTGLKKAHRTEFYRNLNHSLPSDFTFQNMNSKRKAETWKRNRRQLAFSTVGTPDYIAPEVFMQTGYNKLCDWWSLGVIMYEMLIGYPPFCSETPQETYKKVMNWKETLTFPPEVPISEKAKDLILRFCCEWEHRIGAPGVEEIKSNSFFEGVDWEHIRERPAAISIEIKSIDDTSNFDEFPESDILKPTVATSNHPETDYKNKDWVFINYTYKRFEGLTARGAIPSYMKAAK

As for `C=CC(=O)Nc1cccc(C(=O)Nc2ccc(Nc3cc(-c4[nH]c(SC)nc4C)ccn3)cc2)c1`, the figures for the % of control in experiment [1] (at 1 µM) and in [1] (at 5 µM) were 90% and 55%, respectively.
Turning to `Cc1cc([C@@H](C)Nc2ccccc2C(=O)O)c2nc(N3CCOCC3)cc(=O)n2c1` [AZD-6482], in experiment [2], the % of control is 89%.
As for `CCN(CC)CCCCNc1ncc2cc(-c3cc(OC)cc(OC)c3)c(NC(=O)NC(C)(C)C)nc2n1`, the % of control in experiment [3] was determined as 100%.
In turn, `CCC(=O)N1CCN(c2ccc(-n3c(=O)ccc4cnc5ccc(-c6cnc7ccccc7c6)cc5c43)cc2C(F)(F)F)CC1` returned a % of control in [4] of 100%.
In [5], `COc1cc(Nc2nc(C)cc(-c3cnn4nc(OC)ccc34)n2)cc(C(F)(F)F)c1` gave a % of control of 90%.
With `O=C(NOC[C@H](O)CO)c1ccc(F)c(F)c1Nc1ccc(I)cc1F`, the % of control in experiment [6] is 79%; in [7], 100%; in [8] it was 93%; in experiment [9], 90%.
With `CNC(=O)Nc1ccc(-c2nc(N3CC4CCC(C3)O4)c3cnn(C4CCC5(CC4)OCCO5)c3n2)cc1`, in experiment [10], the % of control was found to be 83%.
`COc1cc(N(C)c2ccnc3ccc(C(F)(F)F)cc23)cc(OC)c1OC` had a % binding in experiment [11] of 87%.
`CCc1ccccc1C(=O)Nc1n[nH]c2c(C)c(F)c(C3C(C#N)=C(C)N(C)C(C)=C3C#N)cc12` [BAY-3827] returned a % of inhibition in experiment [12] of 30.5%.
